This is an account of results in ChEMBL document CHEMBL6134780, “Halogenated retinoid derivatives as dual RARα and RXRα modulators for treating acute promyelocytic leukemia cells” (Eur J Med Chem, 2024).

A short description of test [1]: Cell cycle arrest in human ATRA-resistant NB4-LR2 cells assessed as accumulation of cells at sub-G1 phase at 1 uM incubated for 12 hrs by DAPI staining based flow cytometric analysis (reference value: 18 %). It is filed as functional. (In flow cytometry, cells or beads pass a laser one at a time.)
Test [2] deals with NB-4. Nature of the test: Induction of cell differentiation in human NB4 cells assessed as NBT positive cells at 0.5 uM incubated for 6 days by Nitro Blue tetrazolium chloride based microscopic analysis (reference value: 0 %). The class given is functional. As to conditions: time 6 day.
The nature of test [3]: Cell cycle arrest in human ATRA-resistant NB4-LR2 cells assessed as accumulation of cells at G2/M phase at 1 uM incubated for 12 hrs by DAPI staining based flow cytometric analysis (reference value: 28 %). The class given is functional.
Test [4] relates to NB-4. Nature of the test: Induction of apoptosis in human NB4 cells assessed as late apoptotic cells at 1 uM incubated for 24 hrs by Annexin V-FITC/PI staining based flow cytometric analysis (reference value: 2.23 %). It is filed as functional.
Test [5] concerns NB-4. Nature of the test: Antiproliferative activity against human NB4 cells assessed as inhibition of cell viability at 0.125 uM incubated for 3 days by CCK8 assay relative to control. It is filed as functional. As to conditions: NB-4, 72 h, time 3 day.
In test [6] the target is T1, Retinoic acid receptor alpha (Homo sapiens) (UniProt P10276).
T1 sequence (whole entry): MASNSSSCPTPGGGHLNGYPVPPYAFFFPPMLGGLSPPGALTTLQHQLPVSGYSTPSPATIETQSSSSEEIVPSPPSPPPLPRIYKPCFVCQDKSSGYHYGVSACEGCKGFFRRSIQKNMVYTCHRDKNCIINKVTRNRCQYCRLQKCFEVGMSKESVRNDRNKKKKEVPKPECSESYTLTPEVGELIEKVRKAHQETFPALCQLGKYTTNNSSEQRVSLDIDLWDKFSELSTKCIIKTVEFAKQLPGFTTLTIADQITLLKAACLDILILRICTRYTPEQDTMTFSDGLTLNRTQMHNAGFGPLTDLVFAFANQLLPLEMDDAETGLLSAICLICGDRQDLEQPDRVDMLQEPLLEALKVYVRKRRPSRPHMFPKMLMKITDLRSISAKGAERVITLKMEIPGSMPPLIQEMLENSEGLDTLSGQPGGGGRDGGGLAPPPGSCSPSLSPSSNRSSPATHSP
Nature of the test: Agonist activity at full length RARalpha LBD (unknown origin) transfected in HEK293T cells co-transfected with pG5luc reporter and Renilla-luc assessed as transactivation at 0.5 to 1 uM incubated for 12 hrs by luciferase reporter gene assay. Conditions: filed as agonist, dose 0.5-1 µM. The class given is cell-based. Background: Reporter assays use an easily measured gene product as a stand-in for the process of interest.

The nature of test [7]: Cell cycle arrest in human ATRA-resistant NB4-LR2 cells assessed as accumulation of cells at G0/G1 phase at 1 uM incubated for 12 hrs by DAPI staining based flow cytometric analysis (reference value: 42 %). The class given is functional.
Test [8] relates to NB-4. Nature of the test: Cell cycle arrest in human NB4 cells assessed as accumulation of cells at S phase at 1 uM incubated for 12 hrs by DAPI staining based flow cytometric analysis (reference value: 20 %). The class given is functional.
For test [9], the system named is NB-4. Nature of the test: Induction of apoptosis in human NB4 cells assessed as early apoptotic cells at 1 uM incubated for 24 hrs by Annexin V-FITC/PI staining based flow cytometric analysis (reference value: 1.77 %). It is filed as functional.
The subject of test [10] is NB-4. Nature of the test: Cell cycle arrest in human NB4 cells assessed as accumulation of cells at G2/M phase at 1 uM incubated for 12 hrs by DAPI staining based flow cytometric analysis (reference value: 26 %). It is filed as functional.
Test [11] relates to NB-4. Nature of the test: Cell cycle arrest in human NB4 cells assessed as accumulation of cells at sub-G1 phase at 1 uM incubated for 12 hrs by DAPI staining based flow cytometric analysis (reference value: 2 %). It is filed as functional.
Test [12] is described as follows: Induction of apoptosis in human ATRA-resistant NB4-LR2 cells assessed as early apoptotic cells at 1 uM incubated for 24 hrs by Annexin V-FITC/PI staining based flow cytometric analysis (reference value: 1.41 %). It is filed as functional.
Test [13] can be described thus: Cell cycle arrest in human ATRA-resistant NB4-LR2 cells assessed as accumulation of cells at S phase at 1 uM incubated for 12 hrs by DAPI staining based flow cytometric analysis (reference value: 12 %). The class given is functional.
Test [14] deals with NB-4. Nature of the test: Cell cycle arrest in human NB4 cells assessed as accumulation of cells at G0/G1 phase at 1 uM incubated for 12 hrs by DAPI staining based flow cytometric analysis (reference value: 51 %). It is filed as functional.
Test [15] is described as follows: Induction of apoptosis in human ATRA-resistant NB4-LR2 cells assessed as late apoptotic cells at 1 uM incubated for 24 hrs by Annexin V-FITC/PI staining based flow cytometric analysis (reference value: 5.62 %). The class given is functional.
In test [16] the target is T2, Retinoic acid receptor gamma (Homo sapiens) (UniProt P13631).
T2 sequence (whole entry): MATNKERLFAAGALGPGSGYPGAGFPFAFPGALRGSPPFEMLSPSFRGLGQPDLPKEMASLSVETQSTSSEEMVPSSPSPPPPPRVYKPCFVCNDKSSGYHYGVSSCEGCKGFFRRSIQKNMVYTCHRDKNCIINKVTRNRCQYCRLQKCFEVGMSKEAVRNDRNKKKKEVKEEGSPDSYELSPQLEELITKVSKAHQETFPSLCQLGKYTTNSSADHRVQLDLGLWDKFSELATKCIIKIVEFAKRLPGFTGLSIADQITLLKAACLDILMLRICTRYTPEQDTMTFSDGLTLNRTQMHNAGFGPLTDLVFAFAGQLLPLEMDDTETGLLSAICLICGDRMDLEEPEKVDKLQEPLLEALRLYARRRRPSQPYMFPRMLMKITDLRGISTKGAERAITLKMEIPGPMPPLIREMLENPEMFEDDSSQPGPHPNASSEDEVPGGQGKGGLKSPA
Nature of the test: Agonist activity at full length RARgamma LBD (unknown origin) transfected in HEK293T cells co-transfected with pG5luc reporter and Renilla-luc at 1 uM incubated for 12 hrs by luciferase reporter gene assay. The class given is cell-based. Conditions: filed as agonist.

For test [17], the target named is T1, Retinoic acid receptor alpha (Homo sapiens). Nature of the test: Agonist activity at full length RARalpha LBD (unknown origin) transfected in HEK293T cells co-transfected with pG5luc reporter and Renilla-luc at 1 uM incubated for 12 hrs by luciferase reporter gene assay. The class given is cell-based. Conditions: filed as agonist.
For test [18], the target named is T3, Retinoic acid receptor beta (Homo sapiens) (UniProt P10826).
T3 sequence (whole entry): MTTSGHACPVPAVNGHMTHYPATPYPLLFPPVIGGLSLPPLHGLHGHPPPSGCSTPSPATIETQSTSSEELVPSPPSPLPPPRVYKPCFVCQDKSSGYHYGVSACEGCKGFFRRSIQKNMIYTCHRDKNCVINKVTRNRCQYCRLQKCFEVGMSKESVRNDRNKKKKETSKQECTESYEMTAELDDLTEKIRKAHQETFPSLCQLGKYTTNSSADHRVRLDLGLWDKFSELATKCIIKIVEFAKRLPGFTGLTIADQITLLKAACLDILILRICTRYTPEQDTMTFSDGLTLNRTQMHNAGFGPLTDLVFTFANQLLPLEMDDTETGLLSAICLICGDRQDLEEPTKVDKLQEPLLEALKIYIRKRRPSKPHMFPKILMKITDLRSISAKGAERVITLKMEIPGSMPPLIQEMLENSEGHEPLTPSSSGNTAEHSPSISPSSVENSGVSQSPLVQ
Nature of the test: Agonist activity at full length RARbeta LBD (unknown origin) transfected in HEK293T cells co-transfected with pG5luc reporter and Renilla-luc at 1 uM incubated for 12 hrs by luciferase reporter gene assay. Conditions: filed as agonist. The class given is cell-based.

Test [19] relates to ATRA-resistant NB4-LR2. Nature of the test: Antiproliferative activity against human ATRA-resistant NB4-LR2 cells assessed as effect on cell viability up to 2 uM incubated for 3 days by CCK8 assay. The class given is functional, cell-based. Conditions: time 3.0 day. (Tetrazolium assays rely on reduction of a dye to a coloured formazan, in cell work by metabolically active cells.)

Test [20] addresses T4, Retinoic acid receptor gamma (Homo sapiens, UniProt P13631).
T4 sequence (P13631 whole entry): T2 sequence (whole entry)
Nature of the test: Agonist activity at Gal4-fused full length human RARgamma LBD transfected in HEK293T cells co-transfected with pG5luc reporter and Renilla-luc assessed as transactivation incubated for 12 hrs by dual luciferase reporter gene assay. The class given is cell-based. As to conditions: hek293t.

In test [21] the test system is HEK293T. Nature of the test: Agonist activity at full length RARalpha LBD R276E mutant (unknown origin) transfected in HEK293T cells co-transfected with pG5luc reporter and Renilla-luc at 1 uM incubated for 12 hrs by luciferase reporter gene assay. The class given is cell-based. Conditions: Homo sapiens, filed as agonist.

Calls of active or inactive are those of the source. No cut-off for these calls is given here.

Usually inhibition stands for the share of the control response that was lost under treatment. As to `Cc1cc2c(cc1C(=O)/C(I)=C/c1ccc(C(=O)O)cc1)C(C)(C)CCC2(C)C`, the Activity in test [1] is recorded as 20%; in test [2], 78%; in [3] it was 30%; in [4], 4.24%; in test [6], “Active; Highly Raralpha Selective Agonistic Activity Observed”; in test [7], 41%. The Activity was 11% in [8]; 0.58% in test [9]; 24% in [10]; 2% in test [11]; 1.1% in test [12]; 9% in test [13]. For the same compound, the results for the Activity in test [14] and in test [15] were 63% and 6.66%, respectively. Besides, the inhibition at 0.125 µM in test [5] was approximately 40%.
`Cc1cc2c(cc1C(=O)/C=C/c1ccc(C(=O)O)cc1)C(C)(C)CCC2(C)C`: the Activity result in [16] and in test [18] was “Active; Poor Subtype Selectivity Observed” each time. Further, in [17], the outcome was Active.
Consider `Cc1cc2c(cc1C(=O)/C(I)=C\c1ccc(C(=O)O)cc1)C(C)(C)CCC2(C)C`, for which, in test [6], the outcome was Active.
Turning to `CC1(C)CCC(C)(C)c2cc(C(=O)Nc3ccc(C(=O)O)cc3)ccc21`, the inhibition at 0.125 µM in [5] was approximately 40%. Further, the outcome in test [19] was inactive. Also, in test [20], the EC50 result was “Not_determined(Unstable)”. Besides, the Activity result in test [21] was “Active; Partial Impairment Observed”.
